Source: ChEMBL document CHEMBL1131575, “[125I/127I/131I]Iodorhodamine: synthesis, cellular localization, and biodistribution in athymic mice bearing human tumor xenografts and comparison with [99mTc]hexakis(2-methoxyisobutylisonitrile)” (J Med Chem, 1998)

Tests used:
Mus musculus [1] = assay: Biodistribution in athymic mice bearing Human Tumor (KB) Xenografts 1 hour after injection in Muscle (M); format: ADME, organism-based; conditions: in vivo
Homo sapiens [2] = assay: Biodistribution in athymic mice bearing Human Tumor (KB) Xenografts 1 hour after injection in Tumor (T) cells; format: ADME, organism-based; conditions: in vivo
Mus musculus [3] = assay: Biodistribution in athymic mice bearing Human Tumor (LS174T) Xenografts 1 hour after injection in Blood (B); format: ADME, organism-based; conditions: in vivo
Mus musculus [4] = assay: Biodistribution in athymic mice bearing Human Tumor (LS174T) Xenografts 1 hour after injection in Heart (H); format: ADME, organism-based; conditions: in vivo
Mus musculus [5] = assay: Biodistribution in athymic mice bearing Human Tumor (LS174T) Xenografts 1 hour after injection in Lung (L); format: ADME, organism-based; conditions: in vivo
Mus musculus [6] = assay: Biodistribution in athymic mice bearing Human Tumor (LS174T) Xenografts 1 hour after injection in Muscle (M); format: ADME, organism-based; conditions: in vivo
Mus musculus [7] = assay: Biodistribution in athymic mice bearing Human Tumor (LS174T) Xenografts 1 hour after injection in Tumor (T) cells; format: ADME, organism-based; conditions: in vivo
Mus musculus [8] = assay: Biodistribution in athymic mice bearing Human Tumor (TE671) Xenografts 1 hour after injection in Blood (B); format: ADME, organism-based; conditions: in vivo
Mus musculus [9] = assay: Biodistribution in athymic mice bearing Human Tumor (TE671) Xenografts 1 hour after injection in Heart (H); format: ADME, organism-based; conditions: in vivo
Mus musculus [10] = assay: Biodistribution in athymic mice bearing Human Tumor (TE671) Xenografts 1 hour after injection in Lung (L); format: ADME, organism-based; conditions: in vivo
Mus musculus [11] = assay: Biodistribution in athymic mice bearing Human Tumor (TE671) Xenografts 1 hour after injection in Muscle (M); format: ADME, organism-based; conditions: in vivo
Homo sapiens [12] = assay: Biodistribution in athymic mice bearing Human Tumor (TE671) Xenografts 1 hour after injection in Tumor (T) cells; format: ADME, organism-based; conditions: in vivo
Mus musculus [13] = assay: Ratio of biodistributions in Athymic mice bearing human Tumor (TE671) xenografts in Tumor (T) and Muscle (M); format: ADME, organism-based; conditions: in vivo
[14] = (§1) Ratio of biodistributions in Athymic mice bearing human Tumor (KB) xenografts in Heart (H) and Blood (B); format: ADME, organism-based; conditions: mouse, read-out: Biodistribution ratio
Mus musculus [15] = assay: Ratio of biodistributions in Athymic mice bearing human Tumor (KB) xenografts in Heart (H) and Lung (L); format: ADME, organism-based; conditions: in vivo
Mus musculus [16] = assay: Ratio of biodistributions in Athymic mice bearing human Tumor (KB) xenografts in Tumor (T) and Muscle (M); format: ADME, organism-based; conditions: in vivo
[17] = (§2) Ratio of biodistributions in Athymic mice bearing human Tumor (KB) xenografts in Tumor (T) and blood (B); format: ADME, organism-based; conditions: mouse, read-out: Biodistribution ratio
[18] = (§3) Ratio of biodistributions in Athymic mice bearing human Tumor (LS174T) xenografts in Heart (H) and Blood (B); format: ADME, organism-based; conditions: mouse, read-out: Biodistribution ratio
Mus musculus [19] = assay: Ratio of biodistributions in Athymic mice bearing human Tumor (LS174T) xenografts in Heart (H) and Lung (L); format: ADME, organism-based; conditions: in vivo
Mus musculus [20] = assay: Ratio of biodistributions in Athymic mice bearing human Tumor (LS174T) xenografts in Tumor (T) and Muscle (M); format: ADME, organism-based; conditions: in vivo
[21] = (§4) Ratio of biodistributions in Athymic mice bearing human Tumor (TE671) xenografts in Heart (H) and Blood (B); format: ADME, organism-based; conditions: mouse, read-out: Biodistribution ratio
Mus musculus [22] = assay: Ratio of biodistributions in Athymic mice bearing human Tumor (TE671) xenografts in Heart (H) and Lung (L); format: ADME, organism-based; conditions: in vivo
Mus musculus [23] = assay: Biodistribution in athymic mice bearing Human Tumor (KB) Xenografts 1 hour after injection in Blood (B); format: ADME, organism-based; conditions: in vivo
Mus musculus [24] = assay: Biodistribution in athymic mice bearing Human Tumor (KB) Xenografts 1 hour after injection in Heart (H); format: ADME, organism-based; conditions: in vivo
Mus musculus [25] = assay: Biodistribution in athymic mice bearing Human Tumor (KB) Xenografts 1 hour after injection in Lung (L); format: ADME, organism-based; conditions: in vivo
[26] = (§5) Ratio of biodistributions in Athymic mice bearing human Tumor (LS174T) xenografts in Tumor (T) and blood (B); format: ADME, organism-based; conditions: mouse, read-out: Biodistribution ratio
[27] = (§6) Ratio of biodistributions in Athymic mice bearing human Tumor (TE671) xenografts in Tumor (T) and blood (B); format: ADME, organism-based; conditions: mouse, read-out: Biodistribution ratio
Mus musculus [28] = assay: as §6; format: ADME, organism-based, Blood/Heart
Mus musculus [29] = assay: as §1; format: ADME, organism-based
Mus musculus [30] = assay: as §2; format: ADME, organism-based
Mus musculus [31] = assay: as §3; format: ADME, organism-based
Mus musculus [32] = assay: as §5; format: ADME, organism-based, Blood/Heart
Mus musculus [33] = assay: as §4; format: ADME, organism-based

| Dose/g (Mus musculus [1]) [%] | Dose/g (Homo sapiens [2]) [%] | Dose/g (Mus musculus [3]) [%] | Dose/g (Mus musculus [4]) [%] | Dose/g (Mus musculus [5]) [%] | Dose/g (Mus musculus [6]) [%] | Dose/g (Mus musculus [7]) [%] | Dose/g (Mus musculus [8]) [%] | Dose/g (Mus musculus [9]) [%] | Dose/g (Mus musculus [10]) [%] | Dose/g (Mus musculus [11]) [%] | Dose/g (Homo sapiens [12]) [%] | Biodistribution ratio (Mus musculus [13]) | Biodistribution ratio (Mus musculus [15]) | Biodistribution ratio (Mus musculus [16]) | Biodistribution ratio (Mus musculus [19]) | Biodistribution ratio (Mus musculus [20]) | Biodistribution ratio (Mus musculus [22]) | Dose/g (Mus musculus [23]) [%] | Dose/g (Mus musculus [24]) [%] | Molecule | further results |
| --- | --- | --- | --- | --- | --- | --- | --- | --- | --- | --- | --- | --- | --- | --- | --- | --- | --- | --- | --- | --- | --- |
| 1.44 | 1.67 | 1.74 | 0.6 | 0.91 | 0.36 | 0.59 | 1.74 | 0.6 | 0.91 | 0.36 | 1.1 | 3.1 | 0.8 | 1.2 | 0.7 | 1.6 | 0.7 | 4.6 | 2.56 | COC(=O)c1ccccc1-c1c2ccc(=N)cc-2oc2cc(N)ccc12.[125IH] | Kp [14]: 0.6; Kp [17]: 0.36; Kp [18]: 0.5; Kp [21]: 0.5; Dose/g (Mus musculus [25]): 3.23%; Kp [26]: 0.34; Kp [27]: 0.63 |
| 2.74 | 0.65 | 0.13 | 6 | 0.5 | 1.22 | 0.52 | 0.13 | 6 | 0.5 | 1.22 | 1.1 | 0.9 | 4.5 | 0.24 | 12 | 0.43 | 12 | 0.17 | 8.13 | Hexakis-(2-methoxyisobutylisonitrile)Technetium (99mTc-MIBI) | Biodistribution ratio (Mus musculus [28]): 8.5; Biodistribution ratio (Mus musculus [29]): 48; Biodistribution ratio (Mus musculus [30]): 3.8; Biodistribution ratio (Mus musculus [31]): 46; Biodistribution ratio (Mus musculus [32]): 4; Biodistribution ratio (Mus musculus [33]): 46; Dose/g (Mus musculus [25]): 1.82% |
